According to PubChem BioAssay AID1963445 (Molecular Pharmacology Branch, DTP, NCI, 2024):

Test system: MCF7 complex spheroid growth, % test/control
Assay: Anticancer human tumor MCF7 cell line growth inhibition [Asc];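 also: spheroids exposed to compounds for 7 days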;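 as to viability, T/C: 100% = DMSO vehicle control wells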
Conditions: for IC50: curve of first compound; for viability, T/C: stronger effect = lower value
Outline: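 Complex solid-tumor spheroids incorporating human endothelial and mesenchymal stem cells received single agents or combinations over half-log dilution ranges anchored to clinical Cmax.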

`Cn1ncnc1[C@H]1c2n[nH]c(=O)c3cc(F)cc(c23)N[C@@H]1c1ccc(F)cc1` + CCN1C(C(=O)NC23CCC(C(=O)O)(CC2)CC3)C(c2cccc(Cl)c2F)C2(C(=O)Nc3cc(Cl)ccc32)C12CCCCC2 was tested, and the IC50 (second compound 0.00949 µM) was > 100 nM, the IC50 (second compound 0.03 µM) was > 100 nM and the IC50 (second compound 0.0949 µM) was 1.99 nM. For the same compound, the IC50 (second compound 0.3 µM) was < 0.316 nM, the IC50 (second compound 0.949 µM) was < 0.316 nM and the IC50 (second compound 3 µM) was < 0.316 nM. It also gave a viability, T/C (second compound 0.00949 µM, first compound 0.000316 µM) of 121%, a viability, T/C (second compound 0.00949 µM, first compound 0.001 µM) of 98.8% and a viability, T/C (second compound 0.00949 µM, first compound 0.00316 µM) of 116%. It also gave a viability, T/C (second compound 0.00949 µM, first compound 0.01 µM) of 73.1%, a viability, T/C (second compound 0.00949 µM, first compound 0.0316 µM) of 92.4% and a viability, T/C (second compound 0.00949 µM, first compound 0.1 µM) of 67%. For the same compound, the viability, T/C (second compound 0.03 µM, first compound 0.000316 µM) was 67.4%, the viability, T/C (second compound 0.03 µM, first compound 0.001 µM) was 96.7% and the viability, T/C (second compound 0.03 µM, first compound 0.00316 µM) was 75.8%. For the same compound, the viability, T/C (second compound 0.03 µM, first compound 0.01 µM) was 77.6%, the viability, T/C (second compound 0.03 µM, first compound 0.0316 µM) was 55.1% and the viability, T/C (second compound 0.03 µM, first compound 0.1 µM) was 51%. For the same compound, the viability, T/C (second compound 0.0949 µM, first compound 0.000316 µM) was 51.9%, the viability, T/C (second compound 0.0949 µM, first compound 0.001 µM) was 56.7% and the viability, T/C (second compound 0.0949 µM, first compound 0.00316 µM) was 52.3%. The viability, T/C (second compound 0.0949 µM, first compound 0.01 µM) was 38.8%, the viability, T/C (second compound 0.0949 µM, first compound 0.0316 µM) was 37.7% and the viability, T/C (second compound 0.0949 µM, first compound 0.1 µM) was 37%. The viability, T/C (second compound 0.3 µM, first compound 0.000316 µM) was 35.9%, the viability, T/C (second compound 0.3 µM, first compound 0.001 µM) was 29.8% and the viability, T/C (second compound 0.3 µM, first compound 0.00316 µM) was 29.7%. It also gave a viability, T/C (second compound 0.3 µM, first compound 0.01 µM) of 32.9%, a viability, T/C (second compound 0.3 µM, first compound 0.0316 µM) of 26.1% and a viability, T/C (second compound 0.3 µM, first compound 0.1 µM) of 29.1%. The viability, T/C (second compound 0.949 µM, first compound 0.000316 µM) was 21.5%, the viability, T/C (second compound 0.949 µM, first compound 0.001 µM) was 23.1% and the viability, T/C (second compound 0.949 µM, first compound 0.00316 µM) was 16.4%. It also gave a viability, T/C (second compound 0.949 µM, first compound 0.01 µM) of 15.9%, a viability, T/C (second compound 0.949 µM, first compound 0.0316 µM) of 20.8% and a viability, T/C (second compound 0.949 µM, first compound 0.1 µM) of 18.4%. It also gave a viability, T/C (second compound 3 µM, first compound 0.000316 µM) of 15.6%, a viability, T/C (second compound 3 µM, first compound 0.001 µM) of 17.2% and a viability, T/C (second compound 3 µM, first compound 0.00316 µM) of 15.5%. The viability, T/C (second compound 3 µM, first compound 0.01 µM) was 13.1%, the viability, T/C (second compound 3 µM, first compound 0.0316 µM) was 13.9% and the viability, T/C (second compound 3 µM, first compound 0.1 µM) was 14.6%.
